Results on three compounds are retold here after ChEMBL document CHEMBL1127456, “Structure-activity studies of antitumor taxanes: synthesis of novel C-13 side chain homologated taxol and taxotere analogs” (J Med Chem, 1994).

A short description of assay [1]: Ratio between ED50 of compound and ED50 of taxol. It counts as functional.
Assay [2] addresses Tubulin alpha chain (Sus scrofa) (UniProt P02550). As to the kind of experiment: Tested for the reduction of the supernatant protein concentration by tubulin assembly assay. In kind it is functional.

Sequence of Tubulin alpha chain (Sus scrofa) (P02550 whole entry, looked up): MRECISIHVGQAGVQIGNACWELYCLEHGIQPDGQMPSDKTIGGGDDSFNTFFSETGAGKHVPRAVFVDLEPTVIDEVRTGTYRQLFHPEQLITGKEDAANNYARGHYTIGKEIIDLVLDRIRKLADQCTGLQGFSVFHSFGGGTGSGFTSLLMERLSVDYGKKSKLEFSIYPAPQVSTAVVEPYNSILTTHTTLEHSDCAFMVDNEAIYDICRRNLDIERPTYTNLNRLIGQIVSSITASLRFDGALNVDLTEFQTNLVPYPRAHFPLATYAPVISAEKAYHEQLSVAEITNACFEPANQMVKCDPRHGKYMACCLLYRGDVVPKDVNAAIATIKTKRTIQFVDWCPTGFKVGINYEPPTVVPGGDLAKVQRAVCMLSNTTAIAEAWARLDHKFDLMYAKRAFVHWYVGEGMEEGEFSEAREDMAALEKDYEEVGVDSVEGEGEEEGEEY

Turning to `CC(=O)O[C@@]12CO[C@@H]1C[C@H](O)[C@@]1(C)C(=O)[C@H](O)C3=C(C)[C@@H](OC(=O)[C@H](O)C(NC(=O)c4ccccc4)c4ccccc4)C[C@@](O)([C@@H](OC(=O)c4ccccc4)C12)C3(C)C` (stereo partly specified), the Ratio in assay [1] is over 27. For the same compound, the ED50 in assay [2] was over 25 µM.

In the case of `CC(=O)O[C@@]12CO[C@@H]1C[C@H](O)[C@@]1(C)C(=O)[C@H](O)C3=C(C)[C@@H](OC(=O)[C@H](O)[C@@H](NC(=O)OC(C)(C)C)c4ccccc4)C[C@@](O)([C@@H](OC(=O)c4ccccc4)[C@H]21)C3(C)C`, in assay [1], the Ratio was over 27. In addition, the ED50 in assay [2] is over 25 µM.

With `CC(=O)O[C@H]1C(=O)[C@@]2(C)[C@H]([C@H](OC(=O)c3ccccc3)[C@]3(O)C[C@H](OC(=O)[C@H](O)[C@@H](NC(=O)c4ccccc4)c4ccccc4)C(C)=C1C3(C)C)[C@]1(OC(C)=O)CO[C@@H]1C[C@@H]2O`, the Ratio in assay [1] was determined as 1. The ED50 in assay [2] was 0.93 µM.
